Results published in PMC11280411, “Phytochemical Investigation of Carex praecox Schreb. and ACE-Inhibitory Activity of Oligomer Stilbenes of the Plant” (Molecules, 2024).
Like-named read-outs stand apart in the source and are kept apart here. One block for each molecule: values may come before it.

Columns and labels:
[1] = test system: Colo 205; assay: Antiproliferative MTT assay; type: cell-based, human; settings: doxorubicin-sensitive cells; for IC50: read-out: IC50 (μM) ± SD, Colo 205
[2] = molecular target: T1, ACE from rabbit lung (Oryctolagus cuniculus, UniProt P12822); assay: ACE-inhibitory assay (ACE Activity Assay Kit, fluorescence); type: biochemical; settings: for inhibition at 90 µM: read-out: Inhibition at 90 μM (%) ± SD
T1 construct: ACE from rabbit lung, A6778, Sigma-Aldrich, USA; purchased Sigma-Aldrich A6778; host or cells: rabbit lung (tissue-derived)
T1 sequence (P12822 34-1310): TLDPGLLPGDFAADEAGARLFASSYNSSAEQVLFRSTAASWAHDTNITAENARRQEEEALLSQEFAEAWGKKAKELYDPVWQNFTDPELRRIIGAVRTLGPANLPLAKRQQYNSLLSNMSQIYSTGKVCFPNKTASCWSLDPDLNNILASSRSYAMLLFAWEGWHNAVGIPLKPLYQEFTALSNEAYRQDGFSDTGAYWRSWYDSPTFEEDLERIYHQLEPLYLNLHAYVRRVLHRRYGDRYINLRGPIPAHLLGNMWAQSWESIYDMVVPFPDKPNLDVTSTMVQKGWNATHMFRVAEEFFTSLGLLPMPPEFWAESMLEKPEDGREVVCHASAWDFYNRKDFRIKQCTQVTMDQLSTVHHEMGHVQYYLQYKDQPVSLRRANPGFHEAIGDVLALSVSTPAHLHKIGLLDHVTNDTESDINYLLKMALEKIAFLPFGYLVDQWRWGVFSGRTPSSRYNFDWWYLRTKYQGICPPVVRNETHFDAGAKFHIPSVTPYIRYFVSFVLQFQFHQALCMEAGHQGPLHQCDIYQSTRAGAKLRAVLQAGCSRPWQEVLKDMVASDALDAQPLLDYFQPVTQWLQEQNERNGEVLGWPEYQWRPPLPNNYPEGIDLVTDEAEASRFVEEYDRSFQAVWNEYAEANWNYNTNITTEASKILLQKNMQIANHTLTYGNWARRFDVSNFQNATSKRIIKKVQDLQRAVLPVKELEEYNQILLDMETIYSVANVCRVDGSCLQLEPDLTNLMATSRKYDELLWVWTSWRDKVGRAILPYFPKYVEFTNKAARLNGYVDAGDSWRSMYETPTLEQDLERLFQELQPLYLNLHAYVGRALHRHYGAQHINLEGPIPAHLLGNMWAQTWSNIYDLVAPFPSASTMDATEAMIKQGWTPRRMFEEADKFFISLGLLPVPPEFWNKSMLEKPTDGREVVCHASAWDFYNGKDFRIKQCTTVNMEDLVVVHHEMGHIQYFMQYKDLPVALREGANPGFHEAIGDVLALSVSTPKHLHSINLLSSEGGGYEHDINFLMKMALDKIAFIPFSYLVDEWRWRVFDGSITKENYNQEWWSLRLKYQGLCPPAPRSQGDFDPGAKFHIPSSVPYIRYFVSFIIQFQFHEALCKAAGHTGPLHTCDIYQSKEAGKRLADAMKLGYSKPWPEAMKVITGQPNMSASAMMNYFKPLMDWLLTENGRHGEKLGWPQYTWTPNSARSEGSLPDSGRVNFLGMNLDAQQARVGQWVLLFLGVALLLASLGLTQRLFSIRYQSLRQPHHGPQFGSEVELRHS

[3] = test system: Colo 320/MDR-LRP expressing ABCB1; assay: Antiproliferative MTT assay; settings: for IC50: Homo sapiens, COLO 320, 72 h, read-out: IC50 (μM) ± SD, Colo 320
[4] = test system: velvetleaf seeds; set-up: method as in doi:10.1007/BF02266955; settings: cited from earlier work
[5] = test system: Colo 320/MDR-LRP expressing ABCB1
[6] = molecular target: T2, C-domain of rabbit lung ACE (Oryctolagus cuniculus, UniProt P12822); assay: ACE domain-specific inhibition, C-domain (FRET substrate Abz-LFK(Dnp)-OH); type: biochemical; settings: for Inhibition (%) ± SD, C-Domain: Abz-LFK(Dnp)-OH [S] = 21 μM
T2 construct: on the C- and N-domain of a rabbit lung ACE using the FRET substrates; from tissue; host or cells: rabbit lung
T2 sequence (P12822 34-1310): T1 sequence (P12822 34-1310)
Method: (§1) ACE domain-specific inhibition studies were performed based on previously reported methods (Carmona et al., 2006 [57]; Lunow et al., 2015 [58]). Fluorescence resonance energy transfer (FRET) substrates, Abz-SDK(Dnp)P-OH and Abz-LFK(Dnp)-OH were used for the N-domain and C-domain, respectively. […] Briefly, 40 μL of assay buffer and 60 μL of the FRET substrate solutions were preincubated for 10 min at 37 °C, with the reaction started by adding 20 μL of diluted ACE solution (5 μL ACE + 15 μL 0.1 mol/L TRIS buffer) and fluorescence measured at λex/λem = 290/450 nm every minute at 37 °C for 30 min. The corresponding KM of the FRET substrates, determined using the Michaelis–Menten equation, was used as the substrate concentration of the FRET substrates used in percent inhibition studies. The inhibitory activity of 16 on both domains was determined as described above with the 40 μL solution containing the inhibitor (inhibitor in DMSO–Assay buffer, 1:9). The control samples, which correspond to 100% enzyme activity, were prepared by replacing the inhibitor solution with TRIS buffer. Dose–effect studies on 16 using the FRET substrates were used to determine the IC50 of this compound on both ACE domains. All experiments were performed in triplicates. The ACE-inhibitory activity was calculated using the following equation:(%) = (Ab − Aa) − (Cb − Ca)/(Ab − Aa) × 100(2) where Aa is the absorbance of control wells at 0 min; Ab is the absorbance of control wells at 15 min; Ca is the absorbance of the inhibitor wells at 0 min; and Cb is the absorbance of inhibitor wells at 15 min.

[7] = molecular target: T3, N-domain of rabbit lung ACE (Oryctolagus cuniculus, UniProt P12822); assay: ACE domain-specific inhibition, N-domain (FRET substrate Abz-SDK(Dnp)P-OH); type: biochemical; settings: for Inhibition (%) ± SD, N-Domain: Abz-SDK(Dnp)P-OH [S] = 72 μM
T3 construct: on the C- and N-domain of a rabbit lung ACE using the FRET substrates; from tissue; host or cells: rabbit lung
T3 sequence (P12822 34-1310): T1 sequence (P12822 34-1310)
Method: as §1

[8] = test system: HIV transcription; set-up: method as in PMID 36975214; settings: T cells; cited from earlier work

Molecule: Oc1ccc(/C=C/c2cc(O)cc3c2C(c2cc(O)cc(O)c2)C(c2ccc(O)cc2)O3)cc1 (stereo not drawn) [Compound 14, trans-ε-viniferin]
IC50 ([1]; Homo sapiens, COLO 205, 72 h): > 100 µM
IC50 ([2]; ACE from rabbit lung): 14 ± 0.7 µM
inhibition at 90 µM [2]: 107 ± 1.1%
IC50 [3]: > 100 µM

Molecule: N.N.[Cl][Pt][Cl] [Cisplatin, reference compound]
IC50 ([1]; 72 h): 53.9 ± 3.92 µM

Molecule: O=c1ccoc2cc(O)cc(O)c12 [Compound 22, 5,7-dihydroxychromone]
inhibition of germination [4]: inhibited the germination of velvetleaf seeds

IC50 ([1]; 72 h): > 100 µM
IC50 [5]: > 100 µM
IC50 ([2]; ACE from rabbit lung): 14.8 ± 0.8 µM
Inhibition at 90 μM (%) ± SD ([2]; ACE from rabbit lung, 90 μM): 98.5 ± 1.2%
Molecule: kobophenol A [Compound 17]

IC50 ([1]; Homo sapiens, COLO 205, 72 h): 0.33 ± 0.03 µM
IC50 [3]: 0.67 ± 0.06 µM
Molecule: COc1cccc2c1C(=O)c1c(O)c3c(c(O)c1C2=O)C[C@@](O)(C(=O)CO)C[C@@H]3O[C@H]1C[C@H](N)[C@H](O)[C@H](C)O1 [Doxorubicin, reference compound]

Molecule: Oc1ccc(C2Oc3cc(O)cc4c3C2c2cc(O)cc(O)c2C(c2ccc(O)cc2)C4C2c3cc(O)cc4c3C(c3cc(O)cc(O)c3C2c2ccc(O)cc2)C(c2ccc(O)cc2)O4)cc1 (single isomer, unassigned; (-)) [Compound 16, (–)-hopeaphenol]
IC50 (μM) ± SD, Colo 205 ([1]; 72 h): notable antiproliferative activity
IC50 ([1]; Homo sapiens, COLO 205, 72 h): 1.59 ± 0.11 µM
IC50 ([2]; ACE from rabbit lung): 7.7 ± 0.9 µM
inhibition at 90 µM ([2]; ACE from rabbit lung, 90 μM): 103 ± 1.5%
type of ACE inhibition (enzyme-kinetic studies) ([2]; Lineweaver-Burk, substrate Abz-Gly-Phe(NO2)-Pro): mixed-type inhibition
IC50 [3]: 6.08 ± 0.24 µM
IC50 (μM) ± SD, Colo 320 ([3]; MTT, 72 h, doxorubicin-resistant cells expressing ABCB1): notable antiproliferative activity
times lower affinity for the C-domain than for the N-domain ([6]; C-domain versus N-domain IC50): 10 times
Inhibition (%) ± SD, C-Domain ([6]; inhibitor 10 μM): 18.17 ± 0.5%
Inhibition (%) ± SD, C-Domain ([6]; inhibitor 50 μM): 23.39 ± 0.6%
IC50 ([6]; rabbit lung ACE, FRET substrate Abz-LFK(Dnp)-OH): > 300 µM
Inhibition (%) ± SD, N-Domain ([7]; inhibitor 10 μM): 42.41 ± 0.8%
Inhibition (%) ± SD, N-Domain ([7]; inhibitor 50 μM): 55.74 ± 3.2%
IC50 ([7]; rabbit lung ACE, FRET substrate Abz-SDK(Dnp)P-OH): 35.7 ± 2.3 µM
inhibition of HIV transcription [8]: selective inhibitor of HIV transcription

IC50 (μM) ± SD, Colo 205 ([1]; 72 h): notable antiproliferative activity
IC50 ([1]; Homo sapiens, COLO 205, 72 h): 48.3 ± 1.54 µM
IC50 [3]: 40.4 ± 1.84 µM
Molecule: Oc1ccc(/C=C/c2cc(O)cc(O)c2)cc1 [Compound 12, trans-resveratrol]
IC50 (μM) ± SD, Colo 320 [5]: notable antiproliferative activity

Molecule: bradykinin-potentiating peptide b [BPPb, reference compound]
Inhibition (%) ± SD, C-Domain ([6]; inhibitor 200 nM): 83.20 ± 3.6%
Inhibition (%) ± SD, N-Domain ([7]; inhibitor 200 nM): 5.2 ± 0.2%

Molecule: Oc1ccc(/C=C\c2cc(O)cc3c2C(c2cc(O)cc(O)c2)C(c2ccc(O)cc2)O3)cc1 (stereo not drawn) [Compound 13, cis-ε-viniferin]
IC50 ([1]; Homo sapiens, COLO 205, 72 h): > 100 µM
IC50 ([2]; ACE from rabbit lung): 18 ± 1.2 µM
inhibition at 90 µM [2]: 95.5 ± 2.8%
IC50 [3]: > 100 µM

IC50 ([1]; Homo sapiens, COLO 205, 72 h): > 100 µM
IC50 ([2]; ACE from rabbit lung): 15.2 ± 0.4 µM
inhibition at 90 µM ([2]; ACE from rabbit lung, 90 μM): 96.7 ± 6.3%
IC50 [3]: > 100 µM
Molecule: Oc1ccc(/C=C\c2cc(O)cc3c2[C@H](c2cc(O)cc4c2[C@H](c2cc(O)cc(O)c2)[C@@H](c2ccc(O)cc2)O4)[C@@H](c2ccc(O)cc2)O3)cc1 [Compound 15, Z-miyabenol C]
